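Method: 48-hour compound exposure of cells in 96-well plates, five concentrations, linear interpolation of endpoints. TGI marks complete inhibition of growth.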
Experiments:
Assay in all cases: growth of human tumour cells (NCI), 48 h
HCT-116 colon = tested on: HCT-116 colon
SNB-19 CNS = tested on: SNB-19 CNS
OVCAR-4 ovarian = tested on: OVCAR-4 ovarian
UACC-62 melanoma = tested on: UACC-62 melanoma
NCI-H23 lung = tested on: NCI-H23 lung
HOP-62 NSCLC = tested on: HOP-62 NSCLC
ACHN renal = tested on: ACHN renal
IGROV1 ovarian = tested on: IGROV1 ovarian
NCI-H522 lung = tested on: NCI-H522 lung
OVCAR-3 ovarian = tested on: OVCAR-3 ovarian
DMS 114 small cell lung = tested on: DMS 114 small cell lung
MOLT-4 leukemia = tested on: MOLT-4 leukemia
UACC-257 melanoma = tested on: UACC-257 melanoma
LOX IMVI melanoma = tested on: LOX IMVI melanoma
786-0 renal = tested on: 786-0 renal
NCI-H460 lung = tested on: NCI-H460 lung
CAKI-1 renal = tested on: CAKI-1 renal
SNB-75 CNS = tested on: SNB-75 CNS
HOP-92 NSCLC = tested on: HOP-92 NSCLC
TK-10 renal = tested on: TK-10 renal
MALME-3M melanoma = tested on: MALME-3M melanoma
SF-268 CNS = tested on: SF-268 CNS
UO-31 renal = tested on: UO-31 renal
KM20L2 colon = tested on: KM20L2 colon
XF 498 CNS = tested on: XF 498 CNS
HT29 colon = tested on: HT29 colon
LXFL 529 NSCLC = tested on: LXFL 529 NSCLC
NCI-H226 lung = tested on: NCI-H226 lung
HL-60(TB) leukemia = tested on: HL-60(TB) leukemia
A498 renal = tested on: A498 renal
OVCAR-5 ovarian = tested on: OVCAR-5 ovarian
SK-OV-3 ovarian = tested on: SK-OV-3 ovarian
SK-MEL-2 melanoma = tested on: SK-MEL-2 melanoma
M19-MEL melanoma = tested on: M19-MEL melanoma
RXF-631 renal = tested on: RXF-631 renal
SK-MEL-28 melanoma = tested on: SK-MEL-28 melanoma
M14 melanoma = tested on: M14 melanoma
SK-MEL-5 melanoma = tested on: SK-MEL-5 melanoma
RXF 393 renal = tested on: RXF 393 renal
SW-620 colon = tested on: SW-620 colon
SNB-78 CNS = tested on: SNB-78 CNS
SN12C renal = tested on: SN12C renal
DMS 273 small cell lung = tested on: DMS 273 small cell lung
A549 NSCLC = tested on: A549 NSCLC
HCT-15 colon = tested on: HCT-15 colon
CCRF-CEM leukemia = tested on: CCRF-CEM leukemia
EKVX NSCLC = tested on: EKVX NSCLC
OVCAR-8 ovarian = tested on: OVCAR-8 ovarian
COLO 205 colon = tested on: COLO 205 colon
SF-295 CNS = tested on: SF-295 CNS
RPMI-8226 leukemia = tested on: RPMI-8226 leukemia
SF-539 CNS = tested on: SF-539 CNS
DLD-1 colon = tested on: DLD-1 colon
K-562 leukemia = tested on: K-562 leukemia
HCC-2998 colon = tested on: HCC-2998 colon
HOP-18 NSCLC = tested on: HOP-18 NSCLC
U251 CNS = tested on: U251 CNS
KM12 colon = tested on: KM12 colon
SR leukemia = tested on: SR leukemia

Measured: TGI

N#CCc1ccc(/C(C#N)=C2/OC(=N)C(c3ccc(CC#N)cc3)C2=O)cc1 (centres undefined)
not listed: HCC-2998 colon | HOP-18 NSCLC | U251 CNS | KM12 colon | SR leukemia
> 100 µM: all other assays above

O=C1CCCC(=O)C1=C(O)CCCCCCCCCCc1ccccc1
74.6 µM: OVCAR-5 ovarian
60.1 µM: UO-31 renal
82.2 µM: NCI-H522 lung
92.7 µM: RXF 393 renal
31.8 µM: COLO 205 colon
95.4 µM: SNB-75 CNS
71.9 µM: SR leukemia
49.1 µM: SK-MEL-2 melanoma
96.9 µM: NCI-H226 lung
39.6 µM: HOP-92 NSCLC
97.9 µM: M19-MEL melanoma
53.4 µM: DMS 114 small cell lung
35.1 µM: HL-60(TB) leukemia
49.5 µM: SK-MEL-5 melanoma
38 µM: CAKI-1 renal
96.8 µM: SK-OV-3 ovarian
79 µM: HT29 colon
70.8 µM: CCRF-CEM leukemia
not listed: MALME-3M melanoma | A498 renal | RXF-631 renal | HCT-15 colon
> 100 µM: all other assays above
